Test results reported in patent publication US12630509B2, “Heterocyclic NMDA antagonists” (TAKEDA PHARMACEUTICAL COMPANY LIMITED, priority 2019, dated 2026).

molecular target: NMDA receptor composed of four subunits including two sets of heterodimers of NR1 and NR2B (GRIN1/GRIN2B) expressed in HEK 293 cells (Homo sapiens, UniProt Q13224); assay: NR2B Ca2+ influx assay; assay type: cell-based; settings: HEK293, final concentration 10 μM; glutamic acid and glycine induced Ca2+ influx, HEK 293 cells expressing human GRIN1 and GRIN2B; read-out: % inhibited(10 μM)
Protocol: The HEK 293 cells that express GRIN1 and GRIN2B were purchased from ChanTest (human NMDA (NR1/NR2B) receptor-expressing, stable replicating cell line (HEK 293) catalog no. CT6121).
Intracellular calcium-ion (Ca^2+) influx caused by glycine and glutamic acid respectively binding to NR1 and NR2B was used as an index of NMDA receptor activation.
The HEK 293 cells expressing GRIN1 and GRIN2B were cultured in a cell culture flask in an incubator (37° C., in 5% CO2) using a DMEM/F-12 (Cosmo Bio, 10-092-CM) medium supplemented with 10% FBS (fetal bovine serum, AusGene), 100 units/mL penicillin, 100 μg/mL streptomycin, 500 μg/mL neomycin, 100 μg/mL Zeocin (registered trademark of Invitrogen), and 5 μg/mL blasticidin.
On the day before the assay, the cells were detached from the flask by trypsinization, suspended in a seeding medium (DMEM (Invitrogen, 31053) supplemented with 10% FBS, 100 units/mL penicillin, and 100 μg/mL streptomycin) so as to be 8×10^5 cells/mL, seeded at 25 μL per well in a 384-well plate (Falcon, 356663) so as to be 20,000 cells/well, and cultured overnight using the incubator. On the day of the assay, tetracycline (Wako Pure Chemical, 209-16561) was diluted with the seeding medium at 2 μg/mL, and added at 25 μL/well to the plate into which the cells were seeded, and this was cultured for 2 hours in the incubator. Afterward, the medium was removed and washed with an assay buffer (137 mM NaCl, 4 mM KCl, 1.8 mM CaCl2), 10 mM HEPES (pH 7.2), 10 mM glucose, 0.1% BSA) at 50 μL/well. Next, a loading buffer (buffer wherein 2.5 μM Fluo-4 AM, 2 mM amaranth, and 1 mM tartrazine are added to the assay buffer) was added at 25 μL/well, and this was incubated in the incubator for 30 minutes and for 15 minutes at room temperature. Solutions wherein the Example compounds were diluted with the above-mentioned assay buffer so as to be 30 μM (final concentration 10 μM) were added at 25 μL/well, and these were left standing for 15 minutes at room temperature. Using FDSS7000EX/μCELL (Hamamatsu Photonics), an assay buffer including 30 μM glutamic acid and 30 μM glycine was added at 25 μL/well, and a fluorescence signal of an Excitation wavelength of 480 nm and an Emission wavelength of 540 nm was measured every 3 seconds for 5 minutes. The inhibitory activity was calculated as a relative activity value (inhibitory rate) wherein relative to an integrated value of florescence values of each well, an integrated value of fluorescence values of a well into which an assay buffer without glutamic acid and glycine was defined as 100% inhibition.

Sequence of NMDA receptor composed of four subunits including two sets of heterodimers of NR1 and NR2B (GRIN1/GRIN2B) expressed in HEK 293 cells (Q13224 27-1484, other chains not shown): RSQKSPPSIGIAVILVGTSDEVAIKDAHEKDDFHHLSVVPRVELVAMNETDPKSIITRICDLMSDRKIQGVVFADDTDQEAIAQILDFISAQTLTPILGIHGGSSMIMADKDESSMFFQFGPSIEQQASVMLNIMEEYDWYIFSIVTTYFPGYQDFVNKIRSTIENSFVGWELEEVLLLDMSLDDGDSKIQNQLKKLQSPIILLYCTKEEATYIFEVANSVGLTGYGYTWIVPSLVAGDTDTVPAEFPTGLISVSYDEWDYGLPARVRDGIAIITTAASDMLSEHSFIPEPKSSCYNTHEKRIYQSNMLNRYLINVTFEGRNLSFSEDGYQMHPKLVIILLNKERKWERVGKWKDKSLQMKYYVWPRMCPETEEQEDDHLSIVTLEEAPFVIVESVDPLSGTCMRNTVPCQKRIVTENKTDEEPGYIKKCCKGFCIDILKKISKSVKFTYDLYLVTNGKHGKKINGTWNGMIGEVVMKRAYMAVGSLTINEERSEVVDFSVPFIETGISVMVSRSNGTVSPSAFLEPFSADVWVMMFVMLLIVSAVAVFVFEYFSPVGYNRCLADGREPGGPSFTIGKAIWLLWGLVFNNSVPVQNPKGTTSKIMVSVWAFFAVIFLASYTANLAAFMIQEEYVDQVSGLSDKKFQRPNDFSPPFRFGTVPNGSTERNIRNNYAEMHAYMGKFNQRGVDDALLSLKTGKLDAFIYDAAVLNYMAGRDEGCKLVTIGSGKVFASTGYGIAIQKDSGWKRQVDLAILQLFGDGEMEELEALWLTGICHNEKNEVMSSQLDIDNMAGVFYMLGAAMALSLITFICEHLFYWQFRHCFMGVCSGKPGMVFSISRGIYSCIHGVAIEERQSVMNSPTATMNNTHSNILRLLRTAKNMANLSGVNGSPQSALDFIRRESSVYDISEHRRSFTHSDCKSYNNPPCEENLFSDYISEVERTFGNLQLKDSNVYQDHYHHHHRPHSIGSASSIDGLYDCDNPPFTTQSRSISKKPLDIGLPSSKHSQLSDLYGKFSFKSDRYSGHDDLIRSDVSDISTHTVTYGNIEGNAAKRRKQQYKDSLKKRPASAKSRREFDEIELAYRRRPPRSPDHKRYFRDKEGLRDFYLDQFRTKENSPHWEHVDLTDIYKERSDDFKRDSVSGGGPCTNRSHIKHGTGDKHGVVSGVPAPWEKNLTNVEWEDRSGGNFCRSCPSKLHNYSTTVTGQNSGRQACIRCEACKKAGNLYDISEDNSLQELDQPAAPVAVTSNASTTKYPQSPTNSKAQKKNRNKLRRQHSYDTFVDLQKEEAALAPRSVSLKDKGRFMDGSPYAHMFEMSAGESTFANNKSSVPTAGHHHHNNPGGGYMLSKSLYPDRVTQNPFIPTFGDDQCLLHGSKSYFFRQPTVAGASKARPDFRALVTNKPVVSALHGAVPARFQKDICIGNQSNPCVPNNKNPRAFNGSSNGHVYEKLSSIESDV

Row | SMILES | inhibition at 10 µM
1 | Cc1ccc(Oc2cnc(CN3C(=O)CCC3C)nc2)cc1 (centres unmarked) [Example 8, 5-methyl-1{[5-(4-methylphenoxy)pyrimidin-2-yl]methyl}pyrrolidin-2-one] | 53%
2 | Cc1ccc(Oc2ccc(CN3C(=O)C[C@@H](O)[C@H]3C)cc2)cc1 [Example 12, (4R,5R)-4-hydroxy-5-methyl-1-{[4-(4-methylphenoxy)pheny]methyl}pyrrolidin-2-one] | 93%
3 | Cc1ccc(Oc2ncc(CN3C(=O)OC[C@@H]3C)cn2)c(F)c1 [Example 23, (4S)-3-{[2-(2-fluoro-4-methylphenoxy)pyrimidin-5-yl]methyl}-4-methyl-1,3-oxazolidin-2-one] | 94%
4 | C[C@H]1[C@@H](O)CC(=O)N1Cc1ccc(Oc2ccc(F)cc2)cc1 [Example 9, (4S,5S)-1-{[4-(4-fluorophenoxy)phenyl]methyl}-4-hydroxy-5-methylpyrrolidin-2-one] | 96%
5 | Cc1ccc(Oc2ccc(CN3C(=O)C[C@H](O)[C@@H]3C)nc2)cc1 [Example 16, (4S,5S)-4-hydroxy-5-methyl-1-{[5-(4-methylphenoxy)pyridin-2-yl]methyl}pyrrolidin-2-one] | 95%
6 | Cc1ccc(Oc2cnc(CN3C(=O)C[C@H](O)[C@@H]3C)cn2)cc1 [Example 19, (4S,5S)-4-hydroxy-5-methyl-1-{[5-(4-methylphenoxy)pyrazin-2-yl]methyl}pyrrolidin-2-one] | 82%
7 | Cc1ccc(Oc2ccc(CN3C(=O)CCC3C)cc2)cc1 (centres unmarked) [Example 1, 5-methyl-1-{[4-(4-methylphenoxy)phenyl]methyl}pyrrolidin-2-one] | 99%
8 | CC[C@H]1[C@@H](O)CC(=O)N1Cc1ccc(Oc2ccc(C)cc2)cc1 [Example 7, (4S,5S)-5-ethyl-4-hydroxy-1-{[4-(4-methylphenoxy)phenyl]methyl}pyrrolidin-2-one] | 98%
9 | Cc1ccc(Oc2cnc(CN3C(=O)CCC3C)cn2)cc1 (centres unmarked) [Example 4, 5-methyl-1-{[5-(4-methylphenoxy)pyrazin-2-yl]methyl}yrrolidin-2-one] | 93%
10 | Cc1ccc(Oc2ccc(CN3C(=O)C[C@H](O)[C@@H]3C)cn2)cc1 [Example 13, (4S,5S)-4-hydroxy-5-methyl-1-{[6-(4-methylphenoxy)pyridin-3-yl]methyl}pyrrolidin-2-one] | 97%
11 | Cc1ccc(Oc2ccc(CN3C(=O)C[C@@H](O)[C@@H]3C)cc2)cc1 [Example 10, (4R,5S)-4-hydroxy-5-methyl-1-{[4-(4-methylphenoxy)phenyl]methyl}pyrrolidin-2-one] | 94%
12 | Cc1ccc(Oc2ncc(CN3C(=O)CCC3C)cn2)cc1 (centres unmarked) [Example 5, 5-methyl-1-{[2-(4-methylphenoxy)pyrimidin-5-yl]methyl}pyrrolidin-2-one] | 91%
13 | Cc1ccc(Oc2ccc(CN3C(=O)C[C@H](O)[C@@H]3C)cc2)cc1 [Example 6, (4S,5S)-4-hydroxy-5-methyl-1-{[4-(4-methylphenoxy)phenyl]methyl}pyrrolidin-2-one] | 97%

The next lines start with the values.

Row | inhibition at 10 µM | SMILES
14 | 97% | C[C@H]1[C@@H](O)CC(=O)N1Cc1ccc(Oc2c(F)cc(F)cc2F)nc1 [Example 27, (4S,5S)-4-hydroxy-5-methyl-1-{[6-(2,4,6-trifluorophenoxy)pyridin-3-yl]methyl}pyrrolidin-2-one]
15 | 93% | C[C@H]1COC(=O)N1Cc1cnc(Oc2c(F)cc(F)cc2F)nc1 [Example 24, (4S)-4-methyl-3-{[2-(2,4,6-trifluorophenoxy)pyrimidin-5-yl]methyl}-1,3-oxazolidin-2-one]
16 | 92% | Cc1ccc(Oc2ccc(CN3C(=O)OCC3CF)cn2)c(F)c1 (centres unmarked) [Example 39, 4-(fluoromethyl)-3-{[6-(2-fluoro-4-methylphenoxy)pyridin-3-yl]methyl}-1,3-oxazolidin-2-one]
17 | 97% | C[C@H]1[C@@H](O)C(F)(F)C(=O)N1Cc1ccc(Oc2ccc(F)cc2F)nc1 [Example 36, (4R,5S)-1-{[6-(2,4-difluorophenoxy)pyridin-3-yl]methyl}-3,3-difluoro-4-hydroxy-5-methylpyrrolidin-2-one]
18 | 97% | C[C@H]1CCC(=O)N1Cc1cnc(Oc2ccc(C(F)F)cc2F)nc1 [Example 42, (5S)-1-({2-[4-(difluoromethyl)-2-fluorophenoxy]pyrimidin-5-yl}methyl)-5-methylpyrrolidin-2-one]
19 | 97% | Cc1ccc(Oc2ncc(CN3C(=O)CC[C@@H]3C)cn2)c(F)c1 [Example 44, (5S)-1-{[2-(2-fluoro-4-methylphenoxy)pyrimidin-5-yl]methyl}-5-methylpyrrolidin-2-one]
20 | 98% | C[C@H]1[C@@H](O)CC(=O)N1Cc1ccc(Oc2ccc(Cl)cc2F)nc1 [Example 43, (4S,5S)-1-{[6-(4-chloro-2-fluorophenoxy)pyridin-3-yl]methyl}4-hydroxy-5-methylpyrrolidin-2-one]
21 | 98% | C[C@H]1CCC(=O)N1Cc1ccc(Oc2ccc(F)cc2F)nc1 [Example 48, (5S)-1-{[6-(2,4-difluorophenoxy)pyridin-3-yl]methyl}-5-methylpyrrolidin-2-one]
22 | 90% | Cc1ccc(Oc2ncc(CN3C(=O)OC[C@@H]3C)cn2)cc1 [Example 30, (4S)-4-methyl-3-{[2-(4-methylphenoxy)pyrimidin-5-yl]methyl}-1,3-oxazolidin-2-one]
23 | 96% | C[C@H]1COC(=O)N1Cc1ccc(Oc2c(F)cc(F)cc2F)nc1 [Example 28, (4S)-4-methyl-3-{[6-(2,4,6-trifluorophenoxy)pyridin-3-yl]methyl}-1,3-oxazolidin-2-one]
24 | 95% | C[C@H]1[C@@H](O)CC(=O)N1Cc1ccc(Oc2ccc(C(F)(F)F)cc2F)nc1 [Example 41, (4S,5S)-1-({6-[2-fluoro-4-(trifluoromethyl)phenoxy]pyridin-3-yl}methyl)-4-hydroxy-5-methylpyrrolidin-2-one]
25 | 97% | C[C@H]1CNC(=O)N1Cc1ccc(Oc2c(F)cc(F)cc2F)nc1 [Example 33, (5S)-5-methyl-1-{[6-(2,4,6-trifluorophenoxy)pyridin-3-yl]methyl}imidazolidin-2-one]
26 | 97% | Cc1ccc(Oc2ccc(CN3C(=O)C[C@H](O)[C@@H]3C)cn2)c(F)c1 [Example 26, (4S,5S)-1-{[6-(2-fluoro-4-methylphenoxy)pyridin-3-yl]methyl}-4-hydroxy-5-methylpyrrolidin-2-one]
27 | 96% | Cc1ccc(Oc2ccc(CN3C(=O)OC[C@@H]3C)cn2)c(F)c1 [Example 25, (4S)-3-{[6-(2-fluoro-4-methylphenoxy)pyridin-3-y]methyl}-4-methyl-1,3-oxazolidin-2-one]
28 | 97% | Cc1cc(F)c(Oc2ccc(CN3C(=O)C[C@H](O)[C@@H]3C)cn2)c(F)c1 [Example 31, (4S,5S)-1{[-6-(2,6-difluoro-4-methylphenoxy)pyridin-3-yl]methyl}4-hydroxy-5-methylpyrrolidin-2-one]
29 | 92% | Cc1cc(F)c(Oc2ncc(CN3C(=O)OC[C@@H]3C)cn2)c(F)c1 [Example 32, (4S)-3-{[2-(2,6-difluoro-4-methylphenoxy)pyrimidin-5-yl]methyl}-4-methyl-1,3-oxazolidin-2-one]

same assay, conditions: final concentration 10 μM; glutamic acid and glycine induced Ca2+ influx, HEK 293 cells expressing human GRIN1 and GRIN2B

Row | % inhibited(10 μM) | SMILES
30 | 96% | Cc1ccc(Oc2ccc(CN3C(=O)C[C@H](O)[C@@H]3C)cn2)cc1.Cl [Example 14, (4S,5S)-4-hydroxy-5-methyl-1-{[6-(4-methylphenoxy)pyridin-3-yl]methyl}pyrrolidin-2-one]

same assay, conditions: final concentration 10 μM; glutamic acid and glycine induced Ca2+ influx, HEK 293 cells expressing human GRIN1 and GRIN2B; 10 µM

Row | % inhibited(10 μM) | SMILES
31 | 99% | Cc1ccc(Oc2ccc(CN3C(=O)CCC3C)cc2)cc1 (single isomer, unassigned) [Example 3, 5-methyl-1-{[4-(4-methylphenoxy)phenyl]methyl}pyrrolidin-2-one (optical isomer)]
32 | 98% | Cc1ccc(Oc2ccc(CN3C(=O)CCC3C)cc2)cc1 (single isomer, unassigned) [Example 2, 5-methyl-1-{[4-(4-methylphenoxy)pheny]methyl}pyrrolidin-2-one (optical isomer)]
